Key:
[1] = system: INS-1 cells; experiment: Insulin secretion assay in INS-1 cells (glucose at 4.2 mM); format: cell-based, rat; details: glucose 4.2 mM, 1 h incubation, control = glucose 4.2 mM; for Insulin secretion, % of ctrl at 10 μM of cpd: 10 μM of compound; for Insulin secretion, % of ctrl at 50 μM of cpd: 50 μM of compound
Description: INS-1 cells were cultured in complete medium, RPMI1640 containing 1 mM sodium pyruvate, 50 μM 2-mercaptoethanol, 2 mM glutamine, 10 mM HEPES, 100 IU/mL penicillin, and 100 μg/mL streptomycin (CM), supplemented with 10 mM glucose, and 10% (vol/vol) heat-inactivated fetal calf serum (FCS), as described by Asfari et al. (Endocrinology 130: 167-178, 1992).
INS-1 cells were plated and cultured in 48-well plates. After 2 days of culture, the medium was removed and cells were cultured for 24 h with a medium change to 5 mM glucose, 1% FCS. The cells were then washed with Krebs-Ringer Bicarbonate HEPES buffer (KRBH; 135 mM NaCl; 3.6 mM KCl; 5 mM NaHCO3; 0.5 mM NaH2PO4; 0.5 mM MgCl2; 1.5 mM CaCl2 and 10 mM HEPES; pH 7.4) 0,1% BSA containing 2.8 mM glucose and preincubated for 30 min at 37° C. in the same buffer. The cells were then washed twice and incubated for 1 h in KRBH 0.1% BSA containing 4.2 mM glucose and different concentrations of the tested molecule. Insulin concentration in the collected supernatants was measured with ELISA using rat insulin antibody (Insulin Rat Elit PLUS, cat. ref 10-1145-01).
Insulin secretion results are expressed in % of control (glucose 4.2 mM).
Insulin Secretion in INS-1 Cells (Glucose at 4.2 mM)

| melting point [°C] | SMILES | Insulin secretion, % of ctrl at 10 μM of cpd [1] | Insulin secretion, % of ctrl at 50 μM of cpd [1] |
| --- | --- | --- | --- |
| 108 to 110 | CCn1ccnc(-c2ccc(S(C)(=O)=O)cc2)c1=O [Example 5-2, 1-ethyl-3-[4-(methylsulfonyl)phenyl]pyrazin-2(114)-one] | – | – |
| – | CCn1ccnc(-c2ccc3c(c2)OCO3)c1=O [Example 5-5, 3-(1,3-benzodioxol-5-yl)-1-ethylpyrazin-2(1H)-one] | 158 % of ctrl | 204 % of ctrl |
| 170 | CCn1ccnc(-c2ccc(C(=O)O)cc2)c1=O [Example 5-15, 4-(4-ethyl-3-oxo-3,4-dihydropyrazin-2-yl)benzoic acid] | – | – |
| 170 | CCn1ccnc(-c2ccc3cc[nH]c3c2)c1=O [Example 5-16, 1-ethyl-3-(1H-indol-6-yl)pyrazin-2(1H)-one] | – | – |
| 110 to 113 | CCn1c2c(nc(-c3ccc(Cl)cc3)c1=O)CCCC2 [Example 9, 3-(4-chlorophenyl)-1-ethyl-5,6,7,8-tetrahydroquinoxalin-2(1H)-one] | 343 % of ctrl | 371 % of ctrl |
| – | CCCn1ccnc(-c2ccccc2)c1=O [Example 9-3, 3-phenyl-1-propylpyrazin-2(1H)-one] | 145 % of ctrl | 182 % of ctrl |
| – | CC(C)Cn1ccnc(-c2ccc(Cl)cc2)c1=O [Example 9-7, 3-(4-chlorophenyl)-1-isobutylpyrazin-2(1H)-one] | 140 % of ctrl | 338 % of ctrl |
| – | O=c1c(-c2ccc(Cl)cc2)nccn1CC1CC1 [Example 9-8, 3-(4-chlorophenyl)-1-(cyclopropylmethyl)pyrazin-2(1H)-one] | 172 % of ctrl | 333 % of ctrl |

Source: US8815859B2, “Substituted pyrazin-2-ones and substituted 5,6,7,8-tetrahydroquinoxalin-2-ones and methods of use thereof” (Merck Patent GmbH, priority 2008, dated 2014)
